Reference: patent US12054447B2, “PCNA inhibitors” (City of Hope, priority 2015, dated 2024)

How the values were obtained:
[1] = Stability in plasma; format: in vitro ADME
From the text: FIGS. 8A-8B. FIG. 8A depicts an illustration of AOH1160 degradation by amide cleavage in mouse plasma. FIG. 8B depicts the stability of AOH1160 in human and animal plasma. […] AOH1160 is stable in the plasma of canine, monkey, and human, as well as in the plasma of ES-1-deficient mice (Es1e/SCID).
AOH1160 was degraded in the plasma collected from a wildtype Balb/c mouse, see FIGS. 8A-8B. […] AOH1160 is stable in the plasma of canine, monkey, and human, as well as in the plasma of ES-1-deficient mice (Es1e/SCID).

[2] = system: 7SM0032; test: TUNEL assay (apoptosis); format: cell-based, human; details: 7SM0032 cells, 500 nM, 24 h
Method: (§1) To measure the effect of the compounds on cell growth, cells were seeded at 3×10^4/ml into a 96-well plate. Once attached, cells were treated with various concentrations of AOH1160 for 72 h. Cell growth was measured by the CellTitor-Glo assay (Promega, Madison, WI) according to the manufacturer's instructions. To measure apoptosis, cells were seeded at 1×10^5/ml onto a chamber slide. Once attached, cells were treated with the 500 nM AOH1160 for 24 h. Cells were fixed and analyzed by a TUNEL assay using the TMR red in situ cell death detection kit (Roche Diagnostics, Indianapolis, IN).

[3] = system: SK-N-DZ; test: TUNEL assay / sub-G1 population (apoptosis); format: cell-based, human; details: NB cells (SK-N-DZ), 500 nM, 24 h
Method: as §1

[4] = system: brain tumors; test: Brain tumors in mice, luciferase imaging; format: in vivo; details: given once weekly to tumor bearing mice
Method: (§2) FIG. 12. Effects of AOH1160 on brain tumors in mice. The compound was given to tumor bearing mice once weekly. The brain cancer cells used in this study contains a luciferase. For measuring tumor growth, luciferin was injected into each mouse. The relative growth of the tumors in live mice was determined by measuring luminescent signals by a CCD camera.
as §2, with “The” for “FIG. 12. Effects of AOH1160 on brain tumors in mice. The”, “compound (AOH1160)” for “compound”, “give into” for “given to”

[5] = target: T1, Recombinant human PCNA (Homo sapiens, UniProt P12004); test: Saturation Transfer Difference (STD) NMR, competition with T3; format: binding; details: 1 μM PCNA, 30 μM T3, 3.2 μM AOH1160
T1 construct: made in house
Method: Recombinant human PCNA was purified and exchanged to D2O-based phosphate buffered saline (PBS), pH 7.2. […] The reference spectra were acquired under the same condition without PCNA. 5 uM DSS was used as an internal reference to determine the reported ligand concentration in solution. All NMR experiments were carried out at 25° C. on 600 MHz Bruker Avance equipped with 5 mm triple resonance cryogenic probe. STD (Saturation Transfer Difference) NMR spectra were acquired with transients ranging from 2560 to 32000, spectral width 8012 Hz with 24 k data points. The recycle delay was 2.8 s. Selective saturation was composed of 50 gauss shaped pulses at a field strength of 86 Hz, and the duration of each pulse is 50 ms with a 500 μs delay between pulses. The spin lock filter used to suppress protein signal was optimized to 60 ms at field strength of 5 kHz. The frequency for protein saturation was optimized to be 0.9 ppm; the ligand signals were not disturbed with the employed selective saturation condition at this frequency. The reference spectrum was acquired with saturation irradiated at −30 ppm. To eliminate potential artifacts, the saturation and reference experiments were acquired in an interleaved manner, and the finished experiments were separated into two 1D data for analysis. The peak integration was carried out with Bruker Topspin software. […]

[6] = system: 7SM0032; test: Cell growth, CellTitor-Glo assay, 72 h; format: cell-based, human; details: Homo sapiens; 7SM0032 (non-malignant)
Method: The human NB cell lines, SK-N-DZ, SK-N-BE(2)c, SK-N-AS, and LAN-5 obtained from the American Type Culture Collection (Rockville, MD), were cultured in DMEM with 10% fetal bovine serum (FBS), 100 units/ml penicillin, and 100 μg/ml streptomycin in the presence of 5% CO2 at 37° C. Human PBMCs from a healthy donor were purchased from Sanguine BioSciences (Valencia, CA) and grown in RPMI1640 with 10% FBS, 100 units/ml penicillin, 100 μg/ml streptomycin, and 10 ng/ml IL-2 in the presence of 5% CO2 at 37° C. Human embryonic progenitor cell line 7SM0032 was acquired from Millipore (Billerica, MA) and grown in the hEPM-1 Media Kit purchased from the same company. The plasmid pCBASce expresses the rare cutting I-SceI meganuclease. The U20S-derived cell lines, DR-GFP and EJ5-GFP, each contain a stably transfected reporter gene for DSB repair mediated by HR and end joining (EJ), respectively. These cell lines were cultured in DMEM medium with 10% FBS at 37° C. in the presence of 5% CO2.
as §1

[7] = system: MDA-MB-436 xenograft tumor; test: Xenograft of a triple-negative breast cancer cell line in Es1e/SCID mice; format: in vivo; details: 40 mg/kg once daily
Method: (§3) FIGS. 10A-10B. Inhibition of the growth xenograft tumor derived from a triple-negative breast cancer cell line (MDA-MB-436). Mice bearing xenograft tumors were given vehicle only or 40 mg/kg of AOH1160 through the study. Shown are tumor volumes (FIG. 10A) and mouse body weights (FIG. 10B) in the course of the study. The Es1e/SCID mice used in this study were treated by vehicle only (diamond) or by 40 mg/kg AOH1160 (square) once daily.
as §3, with “Inhibition” for “FIGS. 10A-10B. Inhibition”

T1 sequence (P12004 whole entry): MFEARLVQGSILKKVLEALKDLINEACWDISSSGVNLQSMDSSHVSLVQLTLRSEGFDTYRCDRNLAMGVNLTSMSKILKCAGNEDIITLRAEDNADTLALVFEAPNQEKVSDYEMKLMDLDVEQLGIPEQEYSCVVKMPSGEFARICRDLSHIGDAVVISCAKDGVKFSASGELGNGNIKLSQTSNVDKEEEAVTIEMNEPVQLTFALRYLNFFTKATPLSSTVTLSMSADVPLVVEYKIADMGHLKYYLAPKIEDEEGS

SMILES: O=C(CNC(=O)c1cccc2ccccc12)Nc1ccccc1Oc1ccccc1 [AOH1160]
- stability in plasma ([1]; canine plasma): stable
- stability in plasma ([1]; human plasma): stable
- stability in plasma ([1]; monkey plasma): stable
- stability in plasma ([1]; plasma of ES-1-deficient mice (Es1e/SCID)): stable
- stability in plasma ([1]; wildtype Balb/c mouse plasma): quickly degraded
- apoptosis [2]: Nor does it increase intracellular γH2A.X level (FIG. 2B) or cause apoptosis
- apoptosis [3]: apoptosis as indicated by the increase in the sub-G1 population (FIG. 2A) and TUNEL positivity
- brain tumor growth (luminescent signals) [4]: inhibited brain tumor growth
- competition with T3 for binding to PCNA [5]: competes with T3 for binding to PCNA
- IC50 [6]: > 20 µM
- weight loss [7]: caused no significant weight loss
- tumor growth (tumor volumes) ([7]; vs vehicle): inhibited tumor growth
